This series can be described thus: Solubility tests of UV filters in the solubilizing agent. The series is classed as physicochemical. The settings on record: solvent: morpholine amide of formula (AM-01); stirred seven days at 25° C.; concentration by UV/Vis-spectrometry. On the procedure:
2 ml of the solubilizing agent are filled into a 20 ml vial with cap. Afterwards 0.02 g (1%) of the respective substance (UV Filter) are weighed and added to the solvent. The vial is placed into a thermostat-controlled water bath, wherein the suspension/solution is stirred during seven days at 25° C. If the amount of substance put into the solubilizing agent is fully soluble, additional substance is added until precipitation can be observed. After seven days, the sample is centrifuged for 30 minutes at 13000 rpm at 25° C. The supernatant is transferred into a small beaker. In case the sample is still turbid, it is filtered through a 0.2 μm non-steril Membrex 25 PET filter. Clear solutions must not be filtered. When a clear solution is obtained, the concentration of the substance is determined with UV/Vis-spectrometry. For this purpose the sample may be diluted with a suitable solvent or, in case of lower concentrations, may be measured as is. In order to evaluate the concentration from the UV-spectroscopic results, the extinction coefficient is needed, which is determined independently with a solvent of similar polarity like that one used for dilution of the saturated solutions. The solubility can be calculated using the equation of the Lambert-Beer-Law.
`CCCCCCOC(=O)c1ccccc1C(=O)c1ccc(N(CC)CC)cc1O` [BPH-02]: the “Solubility of UV filter in solubilizing agent” value is given as greater than 40%.

Regarding `CCCCC(CC)COc1ccc(-c2nc(-c3ccc(OC)cc3)nc(-c3ccc(OCC(CC)CCCC)cc3O)n2)c(O)c1` (stereo not drawn) [HTP-02], the “Solubility of UV filter in solubilizing agent” value is 15%. Under `CCCCC(CC)COC(=O)c1ccc(Nc2nc(Nc3ccc(C(=O)OCC(CC)CCCC)cc3)nc(Nc3ccc(C(=O)OCC(CC)CCCC)cc3)n2)cc1` (stereo not drawn) [TAT-02] stands 45%.

These data come from patent US10449135B2, “Solublizing agents for UV filters in cosmetic formulations” (BASF SE, priority 2014, dated 2019).
